From PMC11892739, “Site-specific molecular glues for the 14-3-3/Tau pS214 protein–protein interaction via reversible covalent imine tethering” (RSC Medicinal Chemistry, 2025)
Entries after “also recorded” stand apart in the source; their conditions may differ.

System: 14-3-3γ/Tau pS214 interaction
Assay: Fluorescence anisotropy 14-3-3γ titration with compound and monovalent Tau pS214 peptide
Assay type: binding
Conditions: SF250μM with 14-3-3γ, 250 μM compound
Experimental: FA assays in which 14-3-3γ was titrated to a constant concentration of compound (250 μM) in the presence of the distinct monovalent Tau peptide (10 nM) were performed.
The determined stabilization factors are concentration-dependent (here 250 μM of compound) and might differ based on assay design. […] The app. α-factors of these compounds for both 14-3-3/Tau complexes were determined by 14-3-3γ titrations in the presence of varied concentrations of the particular compound (Fig. 5d and e). Both compounds reached saturation for both 14-3-3γ/Tau complexes enabling accurate determination of the α-factor. The app. α-factors of aldehydes 1 and 18 were plotted for both 14-3-3γ/Tau complexes to investigate phospho-binding site selective cooperativity (Fig. 5f and h). To do so, the stabilization factors at a given compound concentration were plotted against the compound concentration, leading to the determination of the app. α-factors. […]
chromatography (HisTrap high performance cartridges, Cytiva). Typically two 5 mL columns were used for a 2 L culture in which the lysate was loaded on the column, washed with 10 CV wash buffer (50 mM Hepes, pH 8.0, 300 mM NaCl, 25 mM imidazole, 2 mM βME), and eluted with several fractions (2-4 CV) of elution buffer (50 mM Hepes, pH 8.0, 300 mM NaCl, 250 mM imidazole, 2 mM βME). Fractions containing the 14-3-3 protein were combined and dialyzed into 25 mM HEPES pH 8.0, 200 mM NaCl, 10 mM MgCl2, 2 mM βME, followed by dialysis into 25 mM HEPES, 100 mM NaCl, 10 mM MgCl2, 500 μM TCEP (adjusted to pH 8.0). Dialyzed protein was concentrated to ∼40 mg/mL, analyzed by Q -Tof LC/MS, and aliquots were flash -frozen for storage at −80 °C. […]
0.1% (v/v) Tween20, 0.1% (w/v) BSA). Dilution series were made in polystyrene low -volume 384 -well plates (Corning #4514, Black Round Bottom). Measurements were performed directly after plate preparation, using a Tecan SPARK plate reader at room temperature ( λex: 485±20 nm; λem: 535±25 nm; mirror: automatic; flashes: 30; settle time: 1 ms; gain: optimal; Z -position: calculated from well). Wells containing only fluorescein labelled peptide were used to set as G -factor calibrated from these wells. All data were analyzed using GraphPad Prism (10.0.1) and fitted with a four -parameter logistic model (4PL) to determine binding affinities (dissociation constant, KD). All data shown is background corrected for the signal without 14 -3-3ζ and the mean and standard deviation of technical duplicate is plotted, assay performed in a scientific duplicate for hit compounds.
Fluorescence Anisotropy – 14-3-3 titrations in the presence of compound To characterize the affinity of the Tau peptides for 14-3-3 in the presence of compound, 14-3-3ζ or γ was titrated in a 2-fold dilution series starting at 400 (for the 14-3-3ζ titrations to Tau pS2) or 800 (for the 14-3-3γ titrations to Tau pS214 or pS324) µM. 14-3-3 was added to 10 nM of fluorescein-labeled peptide (Tau pS2, Tau pS214 or Tau pS324) in the presence of 250 µM compound (1% DMSO). The assays were performed in a similar way as described above. Data shown is the average and standard deviation of a technical duplicate, top plateau corrected where needed, assay performed in a scientific duplicate. […]
The peptide screen was performed in a similar way as the 14-3-3ζ titration in the precence of compound.
14-3-3ζ was titrated in a 2-fold dilution series (starting at 400 µM 14-3-3ζ) to 100 nM of fluorescein-labeled peptides and 250 µM compound 18 (1% DMSO) in FA buffer (10 mM HEPES pH 7.4, 150 mM […]
Data shown is the average of a scientific triplicate. […]
DSF was performed using 40 µl samples containing 2.5 µM 14 -3-3ζ, 25 µM Tau peptide (Tau pS2, Tau pS214 or Tau pS324), […] (1% DMSO) and 5x ProteoOrange (Lumiprobe, 5000x stock in DMSO) in 10 mM HEPES, 150 mM NaCl, 50 µM TCEP (pH 7.4). The samples were heated from 35 °C to 79°C at a rate of 0.3 °C per 15 s in a C FX96 Touch Real-Time PCR Detection System (Bio -Rad). Fluorescence […]

Compound | phospho-binding site preference Tau pS214 versus Tau pS324 (in words)
O=Cc1ccc(-n2ccnc2-c2ccc(Cl)cc2)cc1Br [Compound 14] | significantly greater extent; also recorded: preference for Tau pS214
O=Cc1ccc(-n2ccnc2-c2ccc(I)cc2)cc1Br [Compound 15] | significantly greater extent; also recorded: preference for Tau pS214
Cc1ccc(-c2nccn2-c2ccc(C=O)c(Br)c2)cc1 [Compound 11] | significantly greater extent
CCc1ccc(-c2nccn2-c2ccc(C=O)c(Br)c2)cc1 [Compound 18] | significantly greater extent; also recorded: highest stabilization selectivity for the 14-3-3γ/Tau pS214 complex
N#Cc1ccc(-c2nccn2-c2ccc(C=O)c(Br)c2)cc1 [Compound 22] | preference for Tau pS214
O=Cc1ccc(-n2ccnc2-c2ccccc2)cc1Br [Compound 1] | did not show a difference in stabilization
O=Cc1ccc(-n2ccnc2-c2ccc(F)cc2)cc1Br [Compound 13] | no preference for Tau pS214
Cc1cccc(-c2nccn2-c2ccc(C=O)c(Br)c2)c1 [Compound 6] | no significant preference
